This note sets out measurements from patent US20060276478A1, “Pyrazolopyrimidines” (priority 2003, published 2006).

Structures are written as SMILES. Structures can show the parent of a compound that is named as a salt.

The first series in a line: logP determination by HPLC (EEC directive 79/831 Annex V. A8). Type of series: physicochemical. The settings on record: HPLC (gradient, acetonitrile/0.1% aqueous phosphoric acid), gradient method. The procedure:
logP values are determined in accordance with EEC directive 79/831 Annex V. A8 by HPLC (gradient method, acetonitrile/0.1% aqueous phosphoric acid). Preparation of Starting Materials
In turn, `CC(Nc1c(-c2ccc(F)cc2Cl)c(Cl)nc2c(C(=N)N)cnn12)C(C)(C)C` (single isomer, unassigned) [Example 3, 3-iminoamide-5-chloro-6-(2-chloro-4-fluorophenyl)-7-(3,3-dimethylbut-2-ylamino)pyrazolo[1,5-a]pyrimidine hydrochloride] came in with a chromatographic logP of 2.72. The same measure, in the same setting: the value for `CC(Nc1c(-c2c(F)cccc2Cl)c(Cl)nc2c(C(N)=O)cnn12)C(C)(C)C` (stereo not shown) [Example 1, 3-amido-5-chloro-6-(2-chloro-6-fluorophenyl)-7-(3,3-dimethylbut-2-ylamino)pyrazolo[1,5-a]pyrimidine] was 3.62. `CC(Nc1c(-c2ccc(F)cc2Cl)c(Cl)nc2c(C(N)=NO)cnn12)C(C)(C)C` (stereo not shown) [Example 2, 3-hydroximinoamido-5-chloro-6-(2-chloro-4-fluorophenyl)-7-(3,3-dimethylbut-2-ylamino)pyrazolo[1,5-a]pyrimidine] gave a chromatographic logP of 2.55. Take `CC(Nc1c(-c2c(F)cccc2Cl)c(Cl)nc2c(C#N)cnn12)C(C)(C)C` (stereo not shown) [Example 36, 3-cyano-5-chloro-6-(2-chloro-6-fluorophenyl)-7-(3,3-dimethylbut-2-ylamino)pyrazolo[1,5-a]pyrimidine]: the chromatographic logP amounted to 4.59. Still for that read-out and setting: the figure for `CC(Nc1c(-c2ccc(F)cc2Cl)c(Cl)nc2c(C#N)cnn12)C(C)(C)C` (stereo not shown) [Example 37] is 4.78; for `N#Cc1cnn2c(O)c(-c3c(F)cccc3Cl)c(O)nc12` [Example 39] it is 0.19.

For the compound `N#Cc1cnn2c(Cl)c(-c3ccc(F)cc3Cl)c(Cl)nc12` [Example 40, 3-cyano-5,7-dichloro-6-(2-chloro-4-fluorophenyl)pyrazolo[1,5-a]pyrimidine], the chromatographic logP turned out to be 3.49. Turning to `N#Cc1cnn2c(Cl)c(-c3c(F)cccc3Cl)c(Cl)nc12` [Example 41], the chromatographic logP was determined as 3.31. This chromatographic logP and that of the compound before are within 0.2 log units of each other.

The same series, now with this note: gradient method, acetonitrile/0.1% aqueous phosphoric acid.
In the case of `CC(Nc1c(-c2ccc(F)cc2Cl)c(Cl)nc2c(C=NNc3ccc([N+](=O)[O-])cc3[N+](=O)[O-])cnn12)C(C)(C)C` (stereo not shown) [Example 5, 3-(2,4-dinitriophenylhydraziminomethyl)-5-chloro-6-(2-chloro-4-fluorophenyl)-7-(3,3-dimethylbut-2-ylamino)pyrazolo[1,5-a]pyrimidine], the chromatographic logP was 6.28.

Still in this series, the particulars now being: gradient method, acetonitrile/0.1% aqueous phosphoric acid, hydrochloride.
For `CC(Nc1c(-c2ccc(F)cc2Cl)c(Cl)nc2c(C(=N)N)cnn12)C(C)(C)C` (single isomer, unassigned) [Example 4, hydrochloride], the logP was determined as 2.58.

As usually defined, the chromatographic logP is lipophilicity estimated from chromatographic retention. Low readings indicate a more hydrophilic compound, high ones a more lipophilic compound. For orientation: logP means a log measure of how a compound divides between an organic and an aqueous phase. A lower logP goes with a more hydrophilic compound.
